Reference: patent US12528837B2, “Aryl substituted polymyxin derivatives” (priority 2018, dated 2026)
Converted amounts (≈) assume the structure as drawn. Where two headings read alike, the source gives them in different places. *1 amine or outer side, *2 acyl side, *3 side chain or, on linkers, in order; H or OH if unused. Where a SMILES comes first, the peptide text is derived from it. Bridges are numbered along the chain shown (N, C = ends). [ ]: non-standard residue; d: D form. The star is where a group is joined. GABA(3S-Bn) = O=C(C[C@@H](CN[*:1])Cc1ccccc1)[*:2]; X16 = NC[C@H](CC(=O)*)Cc1cccc(Cl)c1; X15 = NC[C@@H](CC(=O)*)c1ccccc1Cl; X11 = NC[C@H](CC(=O)*)c1ccccc1Cl; Dab = NCC[C@H](N)C(=O)O; Dap = NC[C@H](N)C(=O)O

What was measured:
P. aeruginosa CCUG 59347 = format: cell-based
Method: (§1) The inoculum was prepared by making a direct suspension of isolated colonies (selected from an 18-24 hour Mueller-Hinton agar plate) adjusted to the 0.5 McFarland standard. […] The assays were performed in duplicate. […] Several of the compounds were subjected to multiple tests, and where this is the case, the MIC presented is the median value obtained. The MIC values are quoted in μg/mL.

E. coli CA58 = format: cell-based
Method: as §1

K. pneumoniae CA64 = format: cell-based
Method: as §1

A. baumannii NCTC 13424 = format: cell-based
Method: (§2) The inoculum was prepared by making a direct suspension of isolated colonies (selected from an 18-24 hour Mueller-Hinton agar plate) adjusted to the 0.5 McFarland standard. […] The assays were performed in duplicate. […] The MIC values are quoted in μg/mL.

P. aeruginosa ATCC 27853 = format: cell-based; conditions: cation-adjusted Mueller-Hinton Broth, 18-20 h, 35° C.
Method: as §2

[1] = tested on: A. baumannii ATCC BAA-747; format: cell-based
Method: as §2

E. coli ATCC 25922 = format: cell-based
Method: as §2

K. pneumoniae ATCC 13822 = format: cell-based
Method: as §2

HK-2 cells = experiment: In vitro renal cell toxicity assay (HK-2); format: cell-based; conditions: IC50 relative to PMB in the same experiment, 24 h
Method: The in vitro renal cell toxicity assay was performed according to the following protocol. […] Cells were seeded at 7,500 cells per well in 96-well plates and allowed to adhere overnight. […] Water and DMSO levels were kept constant at 5% and 0.5% respectively. The test compounds were incubated with cells for 24 h at 37° C. 5% CO2 in a humidified atmosphere. […] Media only background values were subtracted before the data was analysed using GraphPad Prism. Individual values were normalised to the vehicle control wells for each compound. Compound concentration values were plotted as log values to enable a dose-response curve to be fitted. The bottom of the curve was constrained to zero and IC50 values were determined. IC50 values are expressed relative to that for PMB in the same experiment. Where multiple determinations have been made, median values are presented.

[2] = Kidney drug level after subcutaneous dose in mouse; format: in vivo
Method: Four hours after dosing the animals were euthanised and kidneys removed, trimmed of fat and connective tissue, weighed and immediately snap-frozen. After thawing at room temperature, pairs of kidneys from each animal were placed in 2 mL conical tubes containing pre-weighed ceria-stabilised zirconium oxide beads. […] After 10 min. centrifugation at 13,000 rpm and 6° C., 200 μl of the supernatants were transferred into glass inserts and analysed by LC-MS-MS.

[3] = cation-adjusted Mueller-Hinton Broth, 18-20 h, 35° C.

| MIC P. aeruginosa CCUG 59347 (P. aeruginosa CCUG 59347; CCUG 59347) | MIC E. coli CA58 (E. coli CA58; CA58) | MIC K. pneumoniae CA64 (K. pneumoniae CA64; CA64) | MIC A. baumannii NCTC 13424 (A. baumannii NCTC 13424; NCTC 13424) | MIC A. baumannii ATCC BAA-747 ([1]; ATCC BAA-747) | MIC E. coli ATCC 25922 (E. coli ATCC 25922; ATCC 25922) | MIC K. pneumoniae ATCC 13822 (K. pneumoniae ATCC 13822; ATCC 13822) | Compound | MIC P. aeruginosa CCUG 59347 (P. aeruginosa CCUG 59347; [3]) | MIC E. coli CA58 (E. coli CA58; [3]) | MIC K. pneumoniae CA64 (K. pneumoniae CA64; [3]) | MIC A. baumannii NCTC 13424 (A. baumannii NCTC 13424; [3]) | MIC P. aeruginosa ATCC 27853 (P. aeruginosa ATCC 27853) | MIC A. baumannii ATCC BAA-747 [1, 3] | MIC E. coli ATCC 25922 (E. coli ATCC 25922; [3]) | MIC K. pneumoniae ATCC 13822 (K. pneumoniae ATCC 13822; [3]) | HK-2 rel to PMB (HK-2 cells) | Drug level in kidney ([2]; mouse, 17.2 mg/kg sc, 4 hours) | tissue level at time at 4 h ([2]; mouse, in vivo, mice, 17.2 mg/kg free base sc, 4 h, read-out: 4 hr kidney level) | 4 hr kidney level/rel. cytotoxicity ([2]; ratio of 4 h kidney level to HK-2 IC50 relative to PMB) |
| --- | --- | --- | --- | --- | --- | --- | --- | --- | --- | --- | --- | --- | --- | --- | --- | --- | --- | --- | --- |
| – | – | – | – | – | – | – | CC(C)C[C@@H]1NC(=O)[C@@H](Cc2ccccc2)NC(=O)[C@H](CCN)NC(=O)[C@@H](NC(=O)[C@H](CN)NC(=O)[C@@H](NC(=O)C[C@H](CN)c2ccccc2Cl)[C@@H](C)O)CCNC(=O)[C@H]([C@@H](C)O)NC(=O)[C@H](CCN)NC(=O)[C@H](CCN)NC1=O [Example 3, (S)-4-amino-3-(2- chlorophenyl)butanoyl- Thr-Dap-Cyclo[Dab- Dab-DPhe-Leu-Dab- Dab-Thr]] (X15-T[Dap][Dab][Dab][dF]L[Dab][Dab]T; lactam 3-C) | 0.5 µg/mL (≈ 0.437 µM) | 32 µg/mL (≈ 28 µM) | 65 µg/mL (≈ 56.8 µM) | 1 µg/mL (≈ 0.874 µM) | 0.5 µg/mL (≈ 0.437 µM) | 2 µg/mL (≈ 1.75 µM) | 1 µg/mL (≈ 0.874 µM) | 0.5 µg/mL (≈ 0.437 µM) | – | – | – | – |
| – | – | – | – | – | – | – | CC(C)C[C@@H]1NC(=O)[C@@H](Cc2ccccc2)NC(=O)[C@H](CCN)NC(=O)[C@@H](NC(=O)[C@H](CN)NC(=O)[C@@H](NC(=O)C[C@@H](CN)c2ccccc2Cl)[C@@H](C)O)CCNC(=O)[C@H]([C@@H](C)O)NC(=O)[C@H](CCN)NC(=O)[C@H](CCN)NC1=O [Example 4, (R)-4-amino-3-(2- chlorophenyl)butanoyl- Thr-Dap-Cyclo[Dab- Dab-DPhe-Leu-Dab- Dab-Thr]] (X11-T[Dap][Dab][Dab][dF]L[Dab][Dab]T; lactam 3-C) | 0.5 µg/mL (≈ 0.437 µM) | 16 µg/mL (≈ 14 µM) | 16 µg/mL (≈ 14 µM) | 1 µg/mL (≈ 0.874 µM) | 0.25 µg/mL (≈ 0.218 µM) | 1 µg/mL (≈ 0.874 µM) | 0.5 µg/mL (≈ 0.437 µM) | 0.25 µg/mL (≈ 0.218 µM) | – | – | – | – |
| – | – | – | – | – | – | – | CC(C)C[C@@H]1NC(=O)[C@@H](Cc2ccccc2)NC(=O)[C@H](CCN)NC(=O)[C@@H](NC(=O)[C@H](CN)NC(=O)[C@@H](NC(=O)C[C@@H](CN)Cc2ccccc2)[C@@H](C)O)CCNC(=O)[C@H]([C@@H](C)O)NC(=O)[C@H](CCN)NC(=O)[C@H](CCN)NC1=O [Example 10, (S)-4-amino-3- benzylbutanoyl-Thr- Dap-Cyclo[Dab-Dab- DPhe-Leu-Dab-Dab- Thr]. Isomer 2] ({GABA(3S-Bn)}-T[Dap][Dab][Dab][dF]L[Dab][Dab]T; lactam 3-C) | 0.25 µg/mL (≈ 0.222 µM) | 8 µg/mL (≈ 7.12 µM) | 16 µg/mL (≈ 14.2 µM) | 0.25 µg/mL (≈ 0.222 µM) | – | 0.25 µg/mL (≈ 0.222 µM) | – | 0.5 µg/mL (≈ 0.445 µM) | 8 | 346 µg/g | 346000 ng/g | 43 |
| 0.5 µg/mL (≈ 0.431 µM) | 4 µg/mL (≈ 3.45 µM) | 8 µg/mL (≈ 6.9 µM) | 0.25 µg/mL (≈ 0.216 µM) | 0.25 µg/mL (≈ 0.216 µM) | 0.5 µg/mL (≈ 0.431 µM) | 0.5 µg/mL (≈ 0.431 µM) | CC(C)C[C@@H]1NC(=O)[C@@H](Cc2ccccc2)NC(=O)[C@H](CCN)NC(=O)[C@@H](NC(=O)[C@H](CN)NC(=O)[C@@H](NC(=O)C[C@@H](CN)Cc2cccc(Cl)c2)[C@@H](C)O)CCNC(=O)[C@H]([C@@H](C)O)NC(=O)[C@H](CCN)NC(=O)[C@H](CCN)NC1=O [Example 12, (S)-4-amino-3-(3- chlorobenzyl)butanoyl- Thr-Dap-Cyclo[Dab- Dab-DPhe-Leu-Dab- Dab-Thr]. Isomer 2] (X16-T[Dap][Dab][Dab][dF]L[Dab][Dab]T; lactam 3-C) | – | – | – | – | – | – | – | – | – | – | – | – |
